PMC8919389, “Discovery of TAK-925 as a Potent, Selective, and Brain-Penetrant Orexin 2 Receptor Agonist” (ACS Medicinal Chemistry Letters, 2022)
pEC50: −log10 of the molar value. Where two headings read alike, the source gives them in different places.

How the values were obtained:
human OX1R = target: T1, human OX1R (Homo sapiens, UniProt O43613); test: Calcium flux assay, OX1R agonistic activity; type: cell-based; conditions: CHO cells expressing human OX1R, 95% confidence intervals in brackets, duplicate measurements
T1 construct: expressed in transfected cells; host or cells: CHO-K1
T1 sequence (O43613 1-425): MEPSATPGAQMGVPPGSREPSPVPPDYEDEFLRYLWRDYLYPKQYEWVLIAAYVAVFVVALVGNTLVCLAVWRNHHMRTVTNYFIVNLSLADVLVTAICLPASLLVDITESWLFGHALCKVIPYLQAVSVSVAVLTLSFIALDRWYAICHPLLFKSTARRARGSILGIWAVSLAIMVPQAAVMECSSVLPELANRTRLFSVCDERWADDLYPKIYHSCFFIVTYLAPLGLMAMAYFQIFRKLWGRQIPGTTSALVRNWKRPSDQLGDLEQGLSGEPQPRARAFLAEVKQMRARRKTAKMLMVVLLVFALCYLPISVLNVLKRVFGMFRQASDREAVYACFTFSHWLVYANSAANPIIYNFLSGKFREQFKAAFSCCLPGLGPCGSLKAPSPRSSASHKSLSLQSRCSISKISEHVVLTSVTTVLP
Experimental: Calcium flux assay (in vitro agonistic activity of OX2R and OX1R)1 hOX1R/CHO -K1 cells and hOX2R/CHO-K1 cells suspended in Ham's F-12 medium (Fujifilm Wako Pure Chemical Co.) supplemented with 100 U/mL penicillin-streptomycin and 10% FBS […]
cells/well and in black-walled clear -bottomed 96-well plates (Corning) at 45000 cells/well, respectively. The plated cells were grown overnight at 37 °C in the presence of 5% CO2. The following day, the medium was removed, and the cells were incubated with assay buffer ( H BS S with 20mM HEPES, pH 7.4, and 0.1% fatty acid free BSA) containing 2.5 μg/mL Fluo- 4 AM […]
Laboratories), and 0.08% Pluronic F127 (Dojindo Laboratories) for 30 min at 37 °C in the presence of 5% CO2. After incubation, the cells were stimulated with test compounds in the assay buffer. Calcium mobilization was measured using an FDSS/μCELL (Hamamatsu Photonics […]
r epr esent the 0% and 100% responses, respectively.

human OX2R = target: T2, human OX2R (Homo sapiens, UniProt O43614); test: Calcium flux assay, OX2R agonistic activity
T2 sequence (O43614 1-444): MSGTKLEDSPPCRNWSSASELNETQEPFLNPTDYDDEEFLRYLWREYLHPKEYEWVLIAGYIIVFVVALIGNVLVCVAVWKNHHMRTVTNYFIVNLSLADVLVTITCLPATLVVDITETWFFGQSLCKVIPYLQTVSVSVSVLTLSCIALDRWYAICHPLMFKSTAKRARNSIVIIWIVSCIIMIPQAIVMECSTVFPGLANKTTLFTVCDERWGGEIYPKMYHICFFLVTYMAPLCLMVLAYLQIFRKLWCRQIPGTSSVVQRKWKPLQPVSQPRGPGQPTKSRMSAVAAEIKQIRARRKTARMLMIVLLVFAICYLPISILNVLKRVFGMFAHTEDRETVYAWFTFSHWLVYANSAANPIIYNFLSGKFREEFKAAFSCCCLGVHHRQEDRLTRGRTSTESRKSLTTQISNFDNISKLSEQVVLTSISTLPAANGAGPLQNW

[1] = target: multidrug resistance protein 1 (MDR-1) (Homo sapiens, UniProt P08183); test: Transcellular transport study using human MDR1-expressing LLC-PK1 cells; conditions: for MDR-1 ratio (directional transport ratio B to A/A to B): 10 μM test compound, 2 h
Experimental: Transcellular transport study using a t ransporter- exp ressi on syst em
Human MDR1-expressing LLC -PK1 cells were cultured as reported previously with minor
modifications. 2 T he transcellular transport study was performed as reported previously.2 In brief,
the cells were grown for 7 days in an HTS Transwell 96 -well permeable support (pore size, 0.4
μm; sur f ace ar ea, 0. 143 cm2) with a polyethylene ter ephthalate membr ane ( Cor ning Lif e Sciences,
T he cells wer e pr eincubated with M199
at 37 °C for 30 min. Subsequently, transcellular transport was initiated by the addition of M199
either to apical compartments (75 μ L) or to the basolateral compartments (250 μ L) containing 10
μM digoxin, 200 μM lucifer yellow as a marker for the monolayer tightness, and 10 μM test
compounds and then terminated by the removal of each assay plate after 2 h. The aliquots (25
μL) in the opposite compartments were mixed with acetonitrile containing alprenolol an d
diclofenac as an internal standard and then centrifuged. The compound concentrations in the
supernatant were measured by LC− MS/MS. The apparent permeability (Pap p ) of test compounds
in the receiver wells was deter mined, and the efflux ratio for the MDR1 membrane permeability
test was calculated using the following equation:
Efflux ratio = Papp,BtoA/Papp,AtoB
wher e Papp,AtoB is the apical-to-ba sal passive permeability−sur f ace ar ea pr oduct and P app,BtoA is the
basal-to -apical pas sive per meability−sur f ace ar ea pr oduct.

[2] = Brain and plasma concentration after intraperitoneal administration in mice; type: in vivo, C57BL/6J mice; conditions: 10 mg/kg ip; for concentration at 0.5 h / concentration at 1 h: n = 3
Experimental: Brain and plasma concentration of compound 16 was measured after intraperitoneal administration at 10 mg/kg in mice (Table 5).
Measurem ent of plasm a and brain concent rat ion of compound 16 in mice The aliquots of the brain homogenate were mixed with acetonitrile containing internal standard.
The mixtures were centrifuged. The supernatants were diluted with solvents for LC-MS / MS (mobile phase A: 10 mM ammonium formate/formic acid (100/0.2, v/v), mobile phase B: acetonitrile/formic acid (100/0.2, v/v)). The diluted solutions were injected into LC-MS / MS (API5000, AB Sciex, CA) equipped with Shimadzu Shim-pack XR-ODS (2.2 μm, 2.0 × 30 mm, Shimadzu Corporation, Japan) at 50 °C. Analyst sof twar e T M ( ver sio n 1.4.2) was used for data acquisition and processing.
Ethics Statement. The care and use of the animals and the experimental protocols used in this research were approved by the Experimental Animal Care and Use Committee of Takeda Phar maceutical Company Limited.

ICR mice = test: Wakefulness time in ICR mice during the sleep phase (EEG/EMG); type: in vivo; conditions: sleep phase (ZT5), 3 mg/kg subcutaneous, n = 8, P < 0.001 vs vehicle
Experimental: It has been reported that activation of the orexin system by intracerebroventricular injection of OX-A increases wakefulness in rodents.[20],[21] In this study, we assessed the effect of compound 16 on wakefulness time in ICR mice during the sleep phase based on the measurements of electroencephalogram and electromyogram.
Figure 5 Effect of compound 16 on wakefulness time in ICR mice during the sleep phase. Compound 16 at 3 mg/kg or vehicle was administered subcutaneously to ICR mice at zeitgeber time 5, and electroencephalograms and electromyograms were recorded. Analysis was performed with data collected during 3 h after drug administration. Data were presented as the mean + standard error of the mean (n = 8). ***P < 0.001, compared with the vehicle-treated mice (two-tailed paired t test).
Evaluation of wakefulness time m easu rem ent of compound 16 in m ice
I CR mice were obtained from CLEA Japan Inc. (Tokyo, Japan). M ice were housed in groups of 4 per cage in a light controlled room (12 h light/dark cycle with lights on at 07:00 h). Food and tap water were provided ad libitum . […] 1 Compound 16 at 3 mg/kg suspended in 0.5% methylcellulose saline was administered subcutaneously to mice at zeitgeber time 5 (ZT5) in a volume of 10 mL/kg body weight, and then EE G was recorded. […] The statistical significance between two groups was determined by paired t-test with significance set at P < 0.05. […]

[3] = read-out: OX2R agonistic activity EC50, CHO cells expressing human OX2R, calcium flux, 95% confidence intervals in brackets, duplicate measurements

Row | SMILES | pEC50 (human OX1R) | pEC50 (human OX2R; [3]) | MDR-1 ratio (directional transport ratio B to A/A to B) [1] | also measured
1 | CCS(=O)(=O)N[C@@H]1CCCN(C(C)=O)[C@H]1CO[C@H]1CC[C@@H](C(C)C)CC1 [compound 4] | < 4.00 | < 4.52 | – | –
2 | CC(=O)N1CCC[C@H](NS(C)(=O)=O)[C@@H]1CO[C@H]1CC[C@@H](C(C)C)CC1 [compound 7] | < 4.00 | 6.48 | – | –
3 | CCCS(=O)(=O)N[C@H]1CCCN(C(C)=O)[C@H]1CO[C@H]1CC[C@@H](C(C)C)CC1 [compound 9] | < 4.00 | 5.60 | – | –
4 | CS(=O)(=O)N[C@H]1CCCN[C@H]1CO[C@H]1CC[C@@H](c2ccccc2)CC1 [compound 14] | < 4.00 | – | 0.8 | –
5 | CC(=O)N1CCC[C@H](NS(C)(=O)=O)[C@@H]1CO[C@H]1CC[C@@H](C)CC1 (relative stereo) [compound 12] | < 4.00 | – | – | pEC50 (human OX2R): 5.43
6 | CC(=O)N[C@H]1CCCN(C(C)=O)[C@H]1CO[C@H]1CC[C@@H](C(C)C)CC1 (stereo in doubt) [compound 11] | < 4.00 | – | – | pEC50 (human OX2R): < 4.52
7 | CCOC(=O)N1CCC[C@H](NS(C)(=O)=O)[C@@H]1CO[C@H]1CC[C@@H](c2ccccc2)CC1 [compound 17] | < 4.00 | 7.57 | 0.7 | –
8 | CCS(=O)(=O)N[C@@H]1CCCN(C(C)=O)[C@H]1CO[C@H]1CC[C@H](C(C)C)CC1 [compound 6] | < 4.00 | < 4.52 | – | –
9 | CCS(=O)(=O)N[C@H]1CCCN(C(C)=O)[C@H]1CO[C@H]1CC[C@H](C(C)C)CC1 [compound 5] | < 4.00 | < 4.52 | – | –
10 | CC(=O)N1CCC[C@H](NS(=O)(=O)C(C)C)[C@@H]1CO[C@H]1CC[C@@H](C(C)C)CC1 [compound 8] | < 4.00 | 6.03 | – | –
11 | CCNC(=O)N1CCC[C@H](NS(C)(=O)=O)[C@@H]1CO[C@H]1CC[C@@H](c2ccccc2)CC1 [compound 18] | 4.85 | – | 4.8 | –
12 | CCS(=O)(=O)N[C@H]1CCCN(C(C)=O)[C@H]1CO[C@H]1CC[C@@H](C(C)C)CC1 [compound 3] | < 4.00 | 6.57 | – | –
13 | COC(=O)N1CCC[C@H](NS(C)(=O)=O)[C@@H]1CO[C@H]1CC[C@@H](c2ccccc2)CC1 [compound 16, methyl (2R,3S)-3-((methylsulfonyl)amino)-2-(((cis-4-phenylcyclohexyl)oxy)methyl)piperidine-1-carboxylate] | < 4.00 | 8.26 | 0.8 | MDR-1 transport A to B ([1]; apical to basal): 169; half-life in mice ([2]; mice): short half-life; Kp at 0.5 h ([2]; mouse, brain/plasma, C57BL/6J mice, 0.5 h, read-out: brain-to-plasma concn ratio): 0.2; Kp at 1 h ([2]; mouse, brain/plasma, C57BL/6J mice, 1 h, read-out: brain-to-plasma concn ratio): 0.2; concentration at 0.5 h ([2]; mouse, brain, C57BL/6J mice, 0.5 h, read-out: brain concn): 183 ng/g; concentration at 1 h ([2]; mouse, brain, C57BL/6J mice, 1 h, read-out: brain concn): 63 ng/g; concentration at 0.5 h ([2]; mouse, plasma, C57BL/6J mice, 0.5 h, read-out: plasma concn): 880 ng/mL; concentration at 1 h ([2]; mouse, plasma, C57BL/6J mice, 1 h, read-out: plasma concn): 288 ng/mL; total wakefulness time during 3 h after administration (ICR mice): significantly increased
14 | CCS(=O)(=O)NC1CCCN(C(C)=O)C1COC1CCC(C(C)C)CC1 (stereo not drawn) [compound 2] | < 4.00 | 6.24 | – | Emax (human OX2R; read-out: maximum response [Emax], OX2R agonism): 94%
15 | CCC(=O)N1CCC[C@H](NS(C)(=O)=O)[C@@H]1CO[C@H]1CC[C@@H](c2ccccc2)CC1 [compound 15] | < 4.00 | 7.96 | 2.2 | –
16 | CC(=O)N1CCC[C@H](N(C)S(C)(=O)=O)[C@@H]1CO[C@H]1CC[C@@H](C(C)C)CC1 [compound 10] | < 4.00 | < 4.52 | – | –
